Measurements reported in patent US5980935A, “Cationic lipids and methods of use therefor” (priority 1996, dated 1999).

What was measured:
KB31 cells [1] = assay: Delivery of bacterial plasmid pUC-CMVLUC into KB31 cells, luciferase reporter expression (Table 1); assay type: cell-based, human; settings: KB cells, pUC-CMVLUC 1 microgram, 7 h; maximum over a range of plasmid/lipid ratios
Procedure: (§1) These materials were used as supplied from the manufacturer. DOTAP-DOPE 1:1 was prepared from the mixture (1:1 by weight) of 1,2 dioleoyloxy-3-trimethylammoniopropane (DOTAP, Avanti PolarLipids, USA) and DOPE by dissolving in distilled water at the concentration 2 mg/ml. DDAB-DOPE 1:2.5 (also known as LipofectACE®, Gibco BRL, USA) was prepared from the mixture of dioctadecyl-dimethylammonium bromide (DDAB, Sigma, USA) and DOPE in the weight ratio 1:2.5 dissolved in distilled water at concentration of 3 mg/ml with brief sonication. All lipid solutions were sterilized by filtration though 0.2 micrometer cellulase acetate filter, unless supplied sterile by manufacturers.
Human epidermoid carcinoma (KB31) cells were grown at 37° C. and 5% CO2 in RPMI 1640 medium supplemented with 10% heat-inactivated fetal calf serum. The cells were plated into a 12-well cell culture plate at 1.5×10^5 cells/well in 1 ml of the growth medium. After a 24 hour acclimation period, 1 microgram of bacterial plasmid (pUC-CMVLUC) with luciferase reporter gene under control of the CMV promoter was added to the cell media, either alone, or in the complex with cationic lipids as indicated below, prepared at a variety of lipid-to-DNA ratios. The complexes were prepared by mixing the lipid, as supplied by the manufacturer, and 1 microgram of the plasmid in 40 microliters of HEPES-NS. […]

C26 cells = assay: Delivery of bacterial plasmid into mouse colon carcinoma C26 cells, luciferase expression (Table 3); assay type: cell-based
Procedure: as §1
Mouse colon carcinoma cells (C26) were grown, incubated with plasmid pCMVLUC in the presence of Arg-PE or commercially available cationic lipids, and assayed for luciferase expression as described in Example 5 above.

NCI-H1048 cells [2] = assay: Delivery of bacterial plasmid into human extrapulmonary small cell carcinoma NCI-H1048 cells, luciferase expression (Table 4); assay type: cell-based
Procedure: as §1
The cells were plated into a 12-well cell culture plate at 1.5×10^5 cells/well in 1 ml of the growth medium. After a 24 hour acclimation period, 1 microgram of bacterial plasmid (pUC-CMVLUC) with luciferase reporter gene under control of the CMV promoter was added to the cell media, either alone, or in the complex with cationic lipids as indicated below, prepared at a variety of lipid-to-DNA ratios. The complexes were prepared by mixing the lipid, as supplied by the manufacturer, and 1 microgram of the plasmid in 40 microliters of HEPES-NS. […]

NCI-H1048 cells [3] = assay: Uptake of fluorescein-labeled 24-mer phosphorothioate oligonucleotide, flow cytometry (Table 2); assay type: cell-based, human; settings: for Total uptake: mean cell fluorescence / Uptake increase over oligo alone: oligonucleotide 0.5 micro-M
Procedure: Human small cell lung carcinoma cells (NCI-H1048) were grown in RPMI-1640 medium with 10% heat-inactivated fetal calf serum. The cells were exposed for 7 hours in a serum-free medium with a fluorescein-labeled 24-mer phosphorothioate oligonucleotide (0.5 micro-M final concentration), alone or in a complex with lipids obtained as described in Examples 2 and 3. Then the equal volume of serum-supplemented medium was added, and the cells were incubated for another 18 hours. After incubation, cellular accumulation of the oligonucleotide was assayed by flow cytometry using fluorescein label fluorescence.

NCI-A549 cells = assay: Uptake of fluorescein-labeled 18-mer phosphorothioate oligonucleotide (F-ON), fluorescence microscopy; assay type: cell-based, human; settings: oligonucleotide/lipid weight ratio 1:12, 24 hours, 37° C.
Procedure: Human lung adenocarcinoma cells (NCI-A549, American Type Culture Collection) were grown on Permanox® chamber slides in […] medium supplemented with 10% fetal calf serum (R-10) at 37° C. and 5% CO2. 4 micrograms of fluroscein-labeled 18-mer phosphorothioate oligonucleotide (F-ON) in 0.1 ml of HEPES-buffered saline (20 mM hydroxyethylpiperazine-ethane sulfonic acid (HEPES), 144 mM NaCl, pH 7.4) were mixed with Arg-PE formulated as described in Example 2, at the weight ratio of oligonucleotide to the lipid of 1:12. After 30 minutes of incubation, the mixture was made up to 2 mi with R-10 and added to the cells. After 24 hours incubation at 37° C., 5% CO2, the medium was aspirated, the cells washed 4 times with HEPES-buffered balanced salt solution, and immediately examined through a fluorescence microscope. […] Accumulation of the oligonucleotide in NCI-A549 cells, incubated with F-ON under the same conditions, but in the absence of Arg-PE, was undetectable.

KB31 cells [4] = assay: Toxicity of lipids alone or in complex with plasmid for cultured cells, MTT assay; assay type: cell-based, human; settings: for Toxicity in the studied range of concentrations efficient for gene delivery: cultured human cells, alone or in combination with DNA
Procedure: Lipids alone, or in the complex with pUC-CMVLUC plasmid at the indicated ratio were added to the cell medium at concentrations of 3.2-100 microgram of lipid per 1 ml of growth medium. After 24 hours exposure to the lipids, the lipid-containing media were removed, and the cells were further incubated in fresh growth medium for 65 hours. At the end of incubations, the cell viability was determined by MTT assay as described in T. Mossman 65 J. Immunol.

living cells = assay: Delivery of functional plasmid DNA and phosphorothioate oligonucleotide into living cells (summary comparison); assay type: cell-based
From the text: We have tested Arg-PE for its ability to deliver functional plasmid DNA and phosphorothioate oligonucleotide (PS ON) into living cells. […] Helper lipids are required for the activity of previously known monocationic lipids.

[5] = pUC-CMVLUC, maximum over a range of plasmid/lipid ratios

Structure (SMILES)	Maximum luciferase activity (KB31 cells [1])	Plasmid delivery compared with other cationic lipids (C26 cells)	Maximum luciferase activity (C26 cells; [5])	Plasmid delivery compared with Transfectam (NCI-H1048 cells [2])	Maximum luciferase activity (NCI-H1048 cells [2]; [5])	Enhancement of oligonucleotide uptake compared with commercial cationic lipids (NCI-H1048 cells [3]; NCI-H1048 cells)	Total uptake: mean cell fluorescence (NCI-H1048 cells [3]; oligo/lipid ratio 1:3)	Uptake increase over oligo alone (NCI-H1048 cells [3]; oligo/lipid ratio 1:3)	Total uptake: mean cell fluorescence (NCI-H1048 cells [3]; oligo/lipid ratio 1:6)	Uptake increase over oligo alone (NCI-H1048 cells [3]; oligo/lipid ratio 1:6)	Cells showing nuclear fluorescence and cytoplasmic deposits of fluorescent material (NCI-A549 cells)	Microscopic appearance (intracellular distribution of F-ON) (NCI-A549 cells)	Toxicity compared with commercial lipids (MTT viability) (KB31 cells [4]; 3.2-100 microgram lipid per ml, 24 hours exposure, lipid as such or DNA-lipid complexes)	Toxicity in the studied range of concentrations efficient for gene delivery (KB31 cells [4])	Efficiency of DNA delivery compared with DOGS (living cells)	Efficiency of cellular delivery of DNA and PS ON versus commercial materials (living cells)	DNA delivery activity without helper lipid (living cells; without the use of a "helper lipid")
CCCCCCCC/C=C\CCCCCCCC(=O)OC[C@H](COP(=O)(O)OCCNC(=O)[C@@H](N)CCCNC(=N)N)OC(=O)CCCCCCC/C=C\CCCCCCCC [Arg-PE, N-Arginyl-dioleoylphosphatidylethanolamine]	8.25 × 10^6 RLU/mg protein	more effective for the plasmid delivery into C26 cells than other monocationic lipids and as effective as the polycationic lipid Transfectam®	9.02 × 10^7 RLU/mg protein	as effective for the plasmid delivery into NCI-H1048 cells as a polycationic Transfectam®	3.21 × 10^5 RLU/mg protein	enhanced the uptake of the oligonucleotide by the cells at least as effectively as the tested commercial cationic lipids	2.97 relative units	4.26 times	4.08 relative units	5.85 times	100%	bright green nuclear fluorescence and substantial cytoplasmic deposits of granular fluorescent material	displayed the least toxicity	no detectable toxicity	superior to that of a polycationic lipid, DOGS	higher efficiency of the cellular delivery of DNA and PS ON	highly active for the DNA delivery into the cells even without the use of a "helper lipid"
CCCCCCCCCCCCCCCCCCN(CCCCCCCCCCCCCCCCCC)C(=O)CNC(=O)C(CCCNCCCN)NCCCN (stereo not drawn) [DOGS, reference compound]														no detectable toxicity			
